Results on 52 molecules are retold here after ChEMBL document CHEMBL5131383, “Structure-based design, synthesis, and evaluation of inhibitors with high selectivity for PARP-1 over PARP-2” (Eur J Med Chem, 2022).

Calls of active or inactive are those of the source. No cut-off for these calls is given here.

Experiment [1] concerns MCF7. Nature of the experiment: Antiproliferative activity against human MCF7 cells assessed as inhibition of cell growth incubated for 48 hrs by MTT assay. Type of experiment: functional, cell-based. To be noted: MCF7, 48 h.
The target of experiment [2] is T1, Poly [ADP-ribose] polymerase 1 (Homo sapiens, UniProt P09874). Nature of the experiment: Inhibition of human PARP1 using NAD+ as substrate at 5 nM incubated for 1 hr by ELISA relative to control.
Experiment [3] addresses T2, Poly [ADP-ribose] polymerase 2 (Homo sapiens, UniProt Q9UGN5). Nature of the experiment: Inhibition of human PARP2 using NAD+ as substrate incubated for 1 hr by ELISA.
For experiment [4], the target named is T2, Poly [ADP-ribose] polymerase 2. Nature of the experiment: Inhibition of human PARP2 using NAD+ as substrate at 5 nM incubated for 1 hr by ELISA relative to control.
The target of experiment [5] is T1, Poly [ADP-ribose] polymerase 1. The experiment can be described thus: Inhibition of human PARP1 using NAD+ as substrate incubated for 1 hr by ELISA.
In experiment [6] the test system is MX1. Nature of the experiment: Antiproliferative activity against human BRCA mutant MX1 cells assessed as inhibition of cell growth incubated for 48 hrs by MTT assay. Conditions: MX1, 48 h. The experiment is classed as functional, cell-based.
Experiment [7] has as its system A549. The experiment can be described thus: Antiproliferative activity against human A549 cells assessed as inhibition of cell growth incubated for 48 hrs by MTT assay. Type of experiment: functional, cell-based. To be noted: A549, 48 h.
Experiment [8] is filed under the species Homo sapiens. Nature of the experiment: Selectivity index, ratio of IC50 for human PARP2 to IC50 for human PARP1.
In experiment [9] the test system is Mus musculus. The experiment can be described thus: In vivo inhibition of PARP1 in athymic BALB/c mouse xenografted with human BRCA1 mutant MDA-MB-436 cells assessed as prevention of PAR formation 50 mg/kg/day, po measured after 48 hrs by Western blot analysis. Type of experiment: functional, organism-based.

T2 sequence (Q9UGN5 whole entry): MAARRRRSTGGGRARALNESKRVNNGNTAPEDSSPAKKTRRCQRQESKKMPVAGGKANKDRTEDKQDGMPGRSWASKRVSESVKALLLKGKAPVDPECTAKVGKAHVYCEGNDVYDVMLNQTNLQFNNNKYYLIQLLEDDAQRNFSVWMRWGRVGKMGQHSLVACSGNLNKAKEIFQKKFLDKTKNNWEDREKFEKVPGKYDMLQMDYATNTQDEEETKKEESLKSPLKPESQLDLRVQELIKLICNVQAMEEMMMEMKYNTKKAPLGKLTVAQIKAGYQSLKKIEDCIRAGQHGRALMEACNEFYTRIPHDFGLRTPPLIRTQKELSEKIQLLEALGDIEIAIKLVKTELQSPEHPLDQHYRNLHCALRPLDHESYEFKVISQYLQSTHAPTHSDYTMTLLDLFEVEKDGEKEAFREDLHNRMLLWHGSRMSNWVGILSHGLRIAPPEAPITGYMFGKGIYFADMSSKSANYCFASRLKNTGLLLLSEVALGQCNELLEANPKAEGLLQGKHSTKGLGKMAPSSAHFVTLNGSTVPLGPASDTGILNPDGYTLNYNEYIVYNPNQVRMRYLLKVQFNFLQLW
T1 sequence (P09874 whole entry): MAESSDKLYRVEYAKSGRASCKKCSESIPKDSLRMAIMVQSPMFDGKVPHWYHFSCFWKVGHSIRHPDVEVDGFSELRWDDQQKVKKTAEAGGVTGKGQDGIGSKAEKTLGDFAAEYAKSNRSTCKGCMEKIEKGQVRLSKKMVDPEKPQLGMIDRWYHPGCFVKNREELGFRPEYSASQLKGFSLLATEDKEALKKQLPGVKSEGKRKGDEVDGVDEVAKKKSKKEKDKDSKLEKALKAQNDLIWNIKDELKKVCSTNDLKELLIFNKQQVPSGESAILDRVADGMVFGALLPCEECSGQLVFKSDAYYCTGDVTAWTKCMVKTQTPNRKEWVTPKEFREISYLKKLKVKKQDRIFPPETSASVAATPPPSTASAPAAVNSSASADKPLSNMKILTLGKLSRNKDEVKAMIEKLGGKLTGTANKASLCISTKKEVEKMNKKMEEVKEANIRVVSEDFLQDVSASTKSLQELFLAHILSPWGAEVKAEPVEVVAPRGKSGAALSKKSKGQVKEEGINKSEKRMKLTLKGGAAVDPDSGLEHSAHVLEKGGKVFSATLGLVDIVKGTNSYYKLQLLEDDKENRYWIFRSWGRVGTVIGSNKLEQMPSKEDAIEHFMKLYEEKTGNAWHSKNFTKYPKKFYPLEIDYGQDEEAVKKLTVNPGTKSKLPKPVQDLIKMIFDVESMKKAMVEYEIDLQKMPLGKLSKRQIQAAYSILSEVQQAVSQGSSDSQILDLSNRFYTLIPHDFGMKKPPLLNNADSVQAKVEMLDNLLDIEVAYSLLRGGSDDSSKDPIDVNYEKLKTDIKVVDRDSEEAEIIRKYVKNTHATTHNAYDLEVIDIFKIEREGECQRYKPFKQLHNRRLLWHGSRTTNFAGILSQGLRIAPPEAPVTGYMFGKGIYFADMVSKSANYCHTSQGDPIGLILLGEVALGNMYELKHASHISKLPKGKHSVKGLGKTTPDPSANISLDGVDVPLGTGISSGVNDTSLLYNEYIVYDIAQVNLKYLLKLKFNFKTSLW

In the case of `CCN(CC)Cc1ccc(-c2[nH]c3cc(F)cc4c3c2CCNC4=O)cc1`, the concentration for half-maximal inhibition (IC50) came out at 80600 nM in experiment [1]; 11.2 nM in experiment [3]; 0.61 nM in experiment [5]; 49300 nM in [6]; 75800 nM in experiment [7]. In addition, the inhibition came out at 94% in experiment [2] and 35.2% in [4].

As for `CC(C)(C)OC(=O)NC1CCN(Cc2ccc(-c3[nH]c4cc(F)cc5c4c3CCNC5=O)cc2)CC1`, the figures for the inhibition in [2] and in experiment [4] were 82% and 42.4%, respectively. The Ratio IC50 in experiment [8] came out at 6.9. Moreover, the IC50 in experiment [3] amounted to 8.04 nM; in experiment [5] it was 1.17 nM.

On to `O=C1NCCc2c(-c3cccc(CN4CCC(F)(F)CC4)c3)[nH]c3cc(F)cc1c23`, for which the inhibition in experiment [2] turned out to be 38.4%; in [4], 24.3%.

Consider `NC1CCN(Cc2ccc(-c3[nH]c4cc(F)cc5c4c3CCNC5=O)cc2)CC1`, for which the half-inhibitory concentration (IC50) was 59500 nM in experiment [1]; 4.21 nM in experiment [3]; 0.41 nM in [5]; 65400 nM in [6]; 85900 nM in experiment [7]. For the same molecule, the inhibition in experiment [2] turned out to be 95.7%; in experiment [4] it was 63.8%.

On to `CC(=O)N1CCN(Cc2cccc(-c3[nH]c4cc(F)cc5c4c3CCNC5=O)c2)CC1`, for which the inhibition in [2] amounted to 49.8%; in experiment [4], 30.4%.

Turning to `CCOC(=O)C1CCCN(Cc2ccc(-c3[nH]c4cc(F)cc5c4c3CCNC5=O)cc2)C1` (stereo not given), the inhibition in experiment [2] stood at 86.5%; in experiment [4], 36.3%.

As to `CNCc1ccc(-c2[nH]c3cc(F)cc4c3c2CCNC4=O)cc1` [RUCAPARIB], the 50% inhibitory concentration (IC50) worked out at 6610 nM in experiment [1], 6510 nM in [6] and 32200 nM in [7]. Also, the inhibition in [2] was found to be 98%; in experiment [4] it was 77.6%. Also, the inhibition result in experiment [9] is “Active”.

On to `O=C1NCCc2c(-c3ccc(CN4CCN(CCO)CC4)cc3)[nH]c3cc(F)cc1c23`, for which the values for the inhibition in experiment [2] and in experiment [4] were 84.5% and 25.1%, respectively. For the same molecule, the Ratio IC50 in experiment [8] came to 4.3. Also, the concentration for half-maximal inhibition (IC50) in experiment [3] was 6.68 nM; in experiment [5] it was 1.54 nM.

Turning to `O=C1NCCc2c(-c3ccc(B(O)O)cc3)[nH]c3cc(F)cc1c23`, the inhibition in [2] came to 67.4%; in experiment [4] it was 42.7%.

Consider `COC(=O)c1ccc(-c2[nH]c3cc(F)cc4c3c2CCNC4=O)cc1`, for which the figures for the inhibition in experiment [2] and in experiment [4] were 83.3% and 50.1%, respectively.

Turning to `CC1(N)CCN(Cc2cccc(-c3[nH]c4cc(F)cc5c4c3CCNC5=O)c2)CC1`, the inhibition in [2] is 79.2%; in experiment [4] it was 21.3%.

For the molecule `O=C1NCCc2c(-c3ccc(N4CCOCC4)cc3)[nH]c3cc(F)cc1c23`, the values for the inhibition in experiment [2] and in [4] were 88.9% and 54.2%, respectively.

With `Cc1cc(N2CCN(Cc3ccc(-c4[nH]c5cc(F)cc6c5c4CCNC6=O)cc3)CC2)n(-c2ccccc2)n1`, the inhibition was determined as 47.2% in experiment [2] and 29.7% in experiment [4].

`O=C(O)c1cccc(-c2[nH]c3cc(F)cc4c3c2CCNC4=O)c1`: the values for the inhibition in experiment [2] and in [4] were 44.9% and 43.3%, respectively.

For the molecule `CC(C)(C)OC(=O)NC1CCCN(Cc2cccc(-c3[nH]c4cc(F)cc5c4c3CCNC5=O)c2)C1` (stereo not given), the inhibition in experiment [2] was 55.6%; in experiment [4] it was 43.2%.

For the molecule `O=C1NCCc2c(-c3ccc(CN4CCN(C(c5ccccc5)c5ccccc5)CC4)cc3)[nH]c3cc(F)cc1c23`, the inhibition in [2] was 26.5%; in experiment [4], 36.8%.

Take `CC(C)(C)OC(=O)N1CCN(Cc2ccc(-c3[nH]c4cc(F)cc5c4c3CCNC5=O)cc2)CC1`: the inhibition in experiment [2] was determined as 74.2%; in [4], 33.8%.

Consider `Nc1cccc(-c2[nH]c3cc(F)cc4c3c2CCNC4=O)c1`, for which the values for the inhibition in experiment [2] and in [4] were 76.3% and 58.9%, respectively.

As for `O=C1NCCc2c(-c3ccc(OCc4ccccc4)cc3)[nH]c3cc(F)cc1c23`, the inhibition in experiment [2] is 50.6%; in [4], 36.4%.

On to `O=Cc1ccc(-c2[nH]c3cc(F)cc4c3c2CCNC4=O)cc1`, for which the figures for the inhibition in [2] and in experiment [4] were 93.6% and 57.8%, respectively.

With `O=C1NCCc2c(-c3cccc(CN4CCN(C(=O)C5CC5)CC4)c3)[nH]c3cc(F)cc1c23`, the figures for the inhibition in experiment [2] and in [4] were 46.1% and 20.7%, respectively.

Regarding `O=C1NCCc2c(-c3ccc(CN4CCn5c(nnc5C(F)(F)F)C4)cc3)[nH]c3cc(F)cc1c23`, the results for the inhibition in experiment [2] and in experiment [4] were 69.1% and 23.5%, respectively.

`CC(=O)N1CCN(Cc2ccc(-c3[nH]c4cc(F)cc5c4c3CCNC5=O)cc2)CC1`: the inhibition in experiment [2] turned out to be 82.9%; in experiment [4], 28.7%. In [8], the Ratio IC50 is 4.9. The concentration for half-maximal inhibition (IC50) in experiment [3] amounted to 6.4 nM; in experiment [5] it was 1.31 nM.

Consider `O=C1NCCc2c(-c3ccc(N4CCNCC4)cc3)[nH]c3cc(F)cc1c23`, for which the inhibition in experiment [2] was 83.9%; in experiment [4] it was 55.8%.

For the molecule `O=C1NCCc2c(-c3ccc(CN4CCN(c5ncccn5)CC4)cc3)[nH]c3cc(F)cc1c23`, the inhibition amounted to 93.7% in experiment [2] and 47% in experiment [4]. Also, in experiment [8], the Ratio IC50 was 4.8. Also, the IC50 in experiment [3] was 5.71 nM; in experiment [5], 1.19 nM.

Regarding `Nc1ccc(-c2[nH]c3cc(F)cc4c3c2CCNC4=O)cc1`, the inhibition amounted to 84.5% in experiment [2] and 46% in [4].

For the molecule `CC(C)(C)OC(=O)NC1CCN(Cc2cccc(-c3[nH]c4cc(F)cc5c4c3CCNC5=O)c2)CC1`, the inhibition in experiment [2] was 76.5%; in experiment [4] it was 40.7%.

On to `COc1cccc(-c2[nH]c3cc(F)cc4c3c2CCNC4=O)c1`, for which the inhibition in experiment [2] came to 72%; in [4], 35.9%.

On to `O=C(O)c1ccc(-c2[nH]c3cc(F)cc4c3c2CCNC4=O)cc1`, for which the values for the inhibition in experiment [2] and in experiment [4] were 43.2% and 48.1%, respectively.

Turning to `CC1(NC(=O)OC(C)(C)C)CCN(Cc2ccc(-c3[nH]c4cc(F)cc5c4c3CCNC5=O)cc2)CC1`, the inhibition in [2] is 87%; in experiment [4], 40.5%.

`CC(C)N1CCN(Cc2cccc(-c3[nH]c4cc(F)cc5c4c3CCNC5=O)c2)CC1`: the inhibition is 56.6% in experiment [2] and 29% in experiment [4].

Regarding `NC1CCCN(Cc2cccc(-c3[nH]c4cc(F)cc5c4c3CCNC5=O)c2)C1` (stereo not given), the inhibition in experiment [2] amounted to 64.8%; in [4] it was 13.1%.

On to `CC1(N)CCN(Cc2ccc(-c3[nH]c4cc(F)cc5c4c3CCNC5=O)cc2)CC1`, for which the figures for the inhibition in experiment [2] and in experiment [4] were 89.9% and 45.2%, respectively.

In the case of `O=C1NCCc2c(-c3cccc(CN4CCn5c(nnc5C(F)(F)F)C4)c3)[nH]c3cc(F)cc1c23`, the inhibition in [2] was found to be 48.4%; in experiment [4], 24.4%.

Take `CC(C)N1CCN(Cc2ccc(-c3[nH]c4cc(F)cc5c4c3CCNC5=O)cc2)CC1`: the figures for the inhibition in experiment [2] and in experiment [4] were 83.9% and 36.5%, respectively.

For `CN1CCN(Cc2ccc(-c3[nH]c4cc(F)cc5c4c3CCNC5=O)cc2)CC1`, the inhibition in [2] turned out to be 83.1%; in experiment [4] it was 42%.

Turning to `Cc1ccc(-c2[nH]c3cc(F)cc4c3c2CCNC4=O)cc1[N+](=O)[O-]`, the inhibition in experiment [2] came to 93.2%; in [4], 54.6%.

For `C[C@@H]1CN(Cc2cccc(-c3[nH]c4cc(F)cc5c4c3CCNC5=O)c2)CCN1`, the inhibition turned out to be 78.3% in experiment [2] and 50.2% in experiment [4].

Regarding `O=C1NCCc2c(-c3ccc(CN4CCC(F)(F)CC4)cc3)[nH]c3cc(F)cc1c23`, the results for the inhibition in [2] and in experiment [4] were 68.8% and 18%, respectively.

As for `O=C1NCCc2c(-c3ccc(CN4CCCC(F)(F)C4)cc3)[nH]c3cc(F)cc1c23`, the values for the inhibition in [2] and in experiment [4] were 69.3% and 20.5%, respectively.

As for `COc1ccc(-c2[nH]c3cc(F)cc4c3c2CCNC4=O)cc1`, the inhibition in experiment [2] was 82.8%; in experiment [4], 49.4%.

In the case of `CC1(NC(=O)OC(C)(C)C)CCN(Cc2cccc(-c3[nH]c4cc(F)cc5c4c3CCNC5=O)c2)CC1`, the inhibition in experiment [2] came to 59.7%; in experiment [4], 41.8%.

For the molecule `CN1CCN(Cc2cccc(-c3[nH]c4cc(F)cc5c4c3CCNC5=O)c2)CC1`, the inhibition in [2] came to 61.2%; in [4] it was 29%.

Consider `O=C1NCCc2c(-c3ccc(CN4CCN(C(=O)C5CC5)CC4)cc3)[nH]c3cc(F)cc1c23`, for which the inhibition is 85% in experiment [2] and 44.1% in [4].

Regarding `CC(C)(C)c1ccc(-c2[nH]c3cc(F)cc4c3c2CCNC4=O)cc1`, the inhibition in experiment [2] was determined as 56.2%; in experiment [4], 42.3%.

As to `O=C1NCCc2c(-c3ccc([N+](=O)[O-])cc3)[nH]c3cc(F)cc1c23`, the figures for the inhibition in experiment [2] and in experiment [4] were 88.7% and 55.5%, respectively.

For the molecule `N#Cc1ccc(-c2[nH]c3cc(F)cc4c3c2CCNC4=O)cc1`, the inhibition in [2] was 94.1%; in experiment [4], 53.4%.

With `O=C1NCCc2c(-c3ccc(CN4CCN(c5cccc(C(F)(F)F)c5)CC4)cc3)[nH]c3cc(F)cc1c23`, the inhibition in experiment [2] stood at 22.1%; in experiment [4] it was 17.3%.

Turning to `C[C@@H]1CN(Cc2cccc(-c3[nH]c4cc(F)cc5c4c3CCNC5=O)c2)CCN1C(=O)OC(C)(C)C`, the inhibition was 16.3% in [2] and 49.4% in [4].

With `NC1CCCN(Cc2ccc(-c3[nH]c4cc(F)cc5c4c3CCNC5=O)cc2)C1` (stereo not given), the inhibition was 87.9% in experiment [2] and 33.5% in [4].

For the molecule `CC(C)(C)OC(=O)NC1CCCN(Cc2ccc(-c3[nH]c4cc(F)cc5c4c3CCNC5=O)cc2)C1` (stereo not given), the inhibition in [2] was 90.1%; in experiment [4], 34.8%.

As to `C[C@@H]1CN(Cc2ccc(-c3[nH]c4cc(F)cc5c4c3CCNC5=O)cc2)CCN1C(=O)OC(C)(C)C`, the inhibition in [2] was 31.2%; in [4], 20.3%.
